Test results from ChEMBL document CHEMBL5365446, “Discovery, Structure-Activity Relationships, and In Vivo Activity of Dihydropyridone Agonists of the Bile Acid Receptor TGR5” (J Med Chem, 2023).
≈ marks a conversion by molar mass, not a printed value.

Assays:
[1] = molecular target: T1, G-protein coupled bile acid receptor 1 (Homo sapiens, UniProt Q8TDU6); experiment: Agonist activity at human TGR5 receptor expressed in HEK293 cells cotransfected with pCMV tag4b-TGR5 assessed as activation of intracellular cAMP production incubated overnight by luciferase reporter gene assay; format: functional, cell-based
T1 sequence (Q8TDU6 whole entry): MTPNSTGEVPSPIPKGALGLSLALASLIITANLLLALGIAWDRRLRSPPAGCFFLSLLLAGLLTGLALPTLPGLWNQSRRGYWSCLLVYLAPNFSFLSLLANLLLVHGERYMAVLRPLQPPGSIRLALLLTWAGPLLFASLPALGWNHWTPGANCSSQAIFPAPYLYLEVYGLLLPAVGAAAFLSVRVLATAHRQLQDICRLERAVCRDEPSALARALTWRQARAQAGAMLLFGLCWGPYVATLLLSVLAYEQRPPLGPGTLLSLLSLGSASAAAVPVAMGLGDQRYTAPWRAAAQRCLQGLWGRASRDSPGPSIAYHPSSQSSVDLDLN

[2] = molecular target: T2, G-protein coupled bile acid receptor 1 (Mus musculus, UniProt Q80SS6); experiment: Agonist activity at mouse TGR5 receptor expressed in HEK293 cells cotransfected with pCMV AC6-TGR5 assessed as activation of intracellular cAMP production incubated overnight by luciferase reporter gene assay; format: functional, cell-based
T2 sequence (Q80SS6 whole entry): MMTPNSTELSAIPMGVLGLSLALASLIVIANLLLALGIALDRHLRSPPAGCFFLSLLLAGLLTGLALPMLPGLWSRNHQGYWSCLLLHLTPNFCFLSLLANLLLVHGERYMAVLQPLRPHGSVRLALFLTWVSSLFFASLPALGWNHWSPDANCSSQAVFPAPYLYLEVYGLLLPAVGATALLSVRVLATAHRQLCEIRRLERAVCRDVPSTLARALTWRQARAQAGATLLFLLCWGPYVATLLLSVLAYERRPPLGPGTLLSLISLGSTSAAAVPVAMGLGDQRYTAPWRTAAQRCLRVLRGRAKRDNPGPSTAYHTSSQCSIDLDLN

[3] = Apparent permeability across basolateral to apical side in human Caco-2 cells measured after 1 hr by LC-MS/MS analysis
[4] = Apparent permeability across apical to basolateral side in human Caco-2 cells measured after 1 hr by LC-MS/MS analysis
physchem [5] = settings: buffer, pH 7.4
physchem [6] = settings: buffer, pH 7.4; remark: listed apart in the source
in vitro [7] = settings: CD-1, mouse, liver microsomes
in vitro [8] = settings: CD-1, mouse, liver microsomes; remark: listed apart in the source
in vitro [9] = settings: CD-1, mouse, plasma

CCCCN1C(=O)CC(c2ccc(Cl)cc2)C(C(=O)OCc2ccccc2)=C1C (stereo not given)
EC50 ([1]; read-out: EC50): 500 nM
EC50 ([2]; read-out: EC50): 900 nM

COCCN1C(=O)CC(c2ccc(Cl)cc2)C(C(=O)OCc2ccc(C(=O)OC)cc2)=C1C (stereo not given)
EC50 ([1]; read-out: EC50): 300 nM

CCN1C(=O)CC(c2ccc(Cl)cc2)C(C(=O)OCc2ccccc2)=C1C (stereo not given)
EC50 ([2]; read-out: EC50): 900 nM

COC(=O)CN1C(=O)CC(c2ccc(Cl)cc2)C(C(=O)OCc2ccccc2OC)=C1C (stereo not given)
EC50 ([2]; read-out: EC50): 50 nM

COCCN1C(=O)CC(c2ccc(Cl)cc2)C(C(=O)OCc2ccccc2C(F)(F)F)=C1C (stereo not given)
EC50 ([1]; read-out: EC50): 1200 nM
EC50 ([2]; read-out: pEC50 (converted)): 1260 nM

COc1ccccc1COC(=O)C1=C(C)N(CC2CCCO2)C(=O)CC1c1ccc(Cl)nc1 (racemic; 78)
EC50 ([1]; read-out: EC50): 88 nM

O=C1CC(c2ccc(Cl)cc2)C(C(=O)OCc2ccccc2)=CN1 (stereo not given)
EC50 ([2]; read-out: EC50): 8600 nM

COCCN1C(=O)CC(c2ccc(Cl)cc2)C(C(=O)OCc2ccccc2F)=C1C (stereo not given)
EC50 ([1]; read-out: EC50): 300 nM
EC50 ([2]; read-out: EC50): 600 nM

CC1=C(C(=O)OCc2ccccc2)C(c2ccccc2OC(C)C)CC(=O)N1 (stereo not given)
EC50 ([2]; read-out: EC50): 2300 nM

COCCN1C(=O)CC(c2ccc(Cl)cc2)C(C(=O)OCCCc2ccccc2)=C1C (stereo not given)
EC50 ([1]; read-out: EC50): 800 nM

COc1ccccc1COC(=O)C1=C(C)N(CCO)C(=O)CC1c1ccc(Cl)cc1 (stereo not given)
EC50 ([2]; read-out: EC50): 770 nM

COCCN1C(=O)CC(c2ccc(Cl)cc2)C(C(=O)NCc2ccccc2)=C1C (stereo not given)
EC50 ([1]; read-out: EC50): 13000 nM

COc1ccccc1COC(=O)C1=C(C)N(Cc2ccco2)C(=O)CC1c1ccc(Cl)cc1 (stereo not given)
EC50 ([1]; read-out: EC50): 260 nM
EC50 ([2]; read-out: EC50): 160 nM

COc1ccccc1COC(=O)C1=C(C)N(C[C@H]2CCCO2)C(=O)C[C@H]1c1ccc(Cl)cc1
Papp B→A at 1 h [3]: 0.4 ×10⁻⁶ cm/s
Papp A→B at 1 h [4]: 0.2 ×10⁻⁶ cm/s
EC50 ([1]; read-out: EC50): 14 nM
EC50 ([1]; read-out: pEC50 (converted)): 15.8 nM
logD at 24 h (physchem [5]): 3.2
solubility thermodynamic at 24 h (physchem [6]): 2.6 µM (≈ 1.22 µg/mL)

C=C(C)CN1C(=O)CC(c2ccc(Cl)cc2)C(C(=O)OCc2ccccc2)=C1C (stereo not given)
EC50 ([1]; read-out: EC50): 800 nM
EC50 ([2]; read-out: EC50): 1100 nM

CC1=C(C(=O)OCc2ccccc2)C(c2ccc(C(F)(F)F)cc2)CC(=O)N1 (stereo not given)
EC50 ([1]; read-out: EC50): 1200 nM

COCCN1C(=O)CC(c2ccc(Cl)cc2)C(C(=O)OCc2cccc(C)c2)=C1C (stereo not given)
EC50 ([2]; read-out: pEC50 (converted)): 316 nM

COCCN1C(=O)CC(c2ccc(Cl)cc2)C(C(=O)OCc2c(C)cc(C)cc2C)=C1C (stereo not given)
EC50 ([2]; read-out: EC50): 300 nM

COCCN1C(=O)CC(c2ccc(Cl)cc2)C(C(=O)OCc2ccccc2Cl)=C1C (stereo not given)
EC50 ([1]; read-out: EC50): 300 nM
EC50 ([2]; read-out: EC50): 1000 nM

COC(=O)C1=C(C)N(C)C(=O)CC1c1ccc(Cl)cc1 (stereo not given)
EC50 ([2]; read-out: EC50): 15000 nM

COc1ccccc1COC(=O)C1=C(C)N(CC2CCCO2)C(=O)CC1c1ccc(Cl)nc1 (racemic; 77)
EC50 ([1]; read-out: EC50): 2 nM
EC50 ([1]; read-out: pEC50 (converted)): 31.6 nM

CC1=C(C(=O)OCc2ccccc2)C(c2ccc(Cl)cc2)CC(=O)N1Cc1ccccc1 (stereo not given)
EC50 ([1]; read-out: EC50): 800 nM
EC50 ([2]; read-out: EC50): 900 nM

COc1ccccc1COC(=O)C1=C(C)N(C[C@@H]2CCCO2)C(=O)C[C@H]1c1ccc(Cl)nc1
EC50 ([1]; read-out: EC50): 35 nM

COCCN1C(=O)CC(c2ccc(Cl)cc2)C(C(=O)OCc2cccc(C(=O)OC)c2)=C1C (stereo not given)
EC50 ([1]; read-out: EC50): 800 nM
EC50 ([2]; read-out: EC50): 800 nM

COCCN1C(=O)CC(c2ccc(Cl)cc2)C(C(=O)OCc2ccncc2)=C1C (stereo not given)
EC50 ([1]; read-out: EC50): 1000 nM
EC50 ([2]; read-out: EC50): 700 nM

COCCN1C(=O)CC(c2ccc(Cl)cc2)C(C(=O)OCc2ccc(C(F)(F)F)cc2)=C1C (stereo not given)
EC50 ([2]; read-out: EC50): 400 nM

COc1ccccc1COC(=O)C1=C(C)N(C[C@@H]2CCCO2)C(=O)C[C@@H]1c1ccc(Cl)nc1
EC50 ([1]; read-out: EC50): 429 nM

CC1=C(C(=O)OCc2ccccc2)C(c2ccc(Cl)cc2)CC(=O)N1C (stereo not given)
EC50 ([1]; read-out: pEC50 (converted)): 631 nM

COCCN1C(=O)CC(c2ccc(Cl)cc2)C(C(=O)OCc2ccc(Cl)cc2)=C1C (stereo not given)
EC50 ([2]; read-out: EC50): 400 nM

COc1ccccc1COC(=O)C1=C(C)N(C[C@H]2CCCO2)C(=O)C[C@H]1c1ccc(Cl)cc1 (racemic)
EC50 ([1]; read-out: EC50): 30 nM
EC50 ([1]; read-out: pEC50 (converted)): 25.1 nM

COCCN1C(=O)CC(c2ccc(Cl)cc2)C(C(=O)OCc2cccc(F)c2)=C1C (stereo not given)
EC50 ([2]; read-out: EC50): 800 nM

COCCN1C(=O)CC(c2ccc(Cl)cc2)C(C(=O)OCc2ccc(F)cc2)=C1C (stereo not given)
EC50 ([1]; read-out: EC50): 300 nM
EC50 ([2]; read-out: EC50): 500 nM

COCCN1C(=O)CC(c2ccc(Cl)cc2)C(C(=O)OCc2cccc(OC)c2)=C1C (stereo not given)
EC50 ([1]; read-out: EC50): 300 nM

COCCN1C(=O)CC(c2ccc(Cl)cc2)C(C(=O)OCc2cccc(Cl)c2)=C1C (stereo not given)
EC50 ([2]; read-out: EC50): 600 nM

CC1=C(C(=O)OCc2ccccc2)C(c2ccc(Cl)cc2F)CC(=O)N1 (stereo not given)
EC50 ([1]; read-out: EC50): 2000 nM

COc1ccccc1COC(=O)C1=C(C)N(C[C@H]2CCCO2)C(=O)C[C@H]1c1ccc(Cl)nc1
Papp B→A at 1 h [3]: 12.3 ×10⁻⁶ cm/s
Papp A→B at 1 h [4]: 22.5 ×10⁻⁶ cm/s
EC50 ([1]; read-out: EC50): 2 nM
microsomal CLint at 40 min, 1 µM (in vitro [7]): 1310 µL/min/mg
half-life at 40 min, 1 µM (in vitro [8]): 24 s
logD at 24 h (physchem [5]): 3.7
solubility thermodynamic at 24 h (physchem [6]): 38.2 µM (≈ 18 µg/mL)
half-life at 10 µM (in vitro [9]): > 6 h

CC1=C(C(=O)OCc2ccccc2)C(c2ccc(C)cc2)CC(=O)N1 (stereo not given)
EC50 ([1]; read-out: EC50): 6300 nM

COCCN1C(=O)CC(c2ccc(Cl)cc2)C(C(=O)OCC2CCCCC2)=C1C (stereo not given)
EC50 ([1]; read-out: EC50): 700 nM
EC50 ([2]; read-out: EC50): 1200 nM

COCCN1C(=O)CC(c2ccc(Cl)cc2)C(C(=O)OCc2ccccc2OC)=C1C (single isomer, unassigned; enantiomer 1)
EC50 ([1]; read-out: EC50): 120 nM

CC1=C(C(=O)OCc2ccccc2)C(c2ccc(Cl)cc2)CC(=O)N1CC1CCC1 (stereo not given)
EC50 ([1]; read-out: pEC50 (converted)): 316 nM
EC50 ([2]; read-out: EC50): 300 nM

COCCN1C(=O)CC(c2ccc(Cl)cc2)C(C(=O)OCc2ccccc2OC)=C1C (single isomer, unassigned)
EC50 ([1]; read-out: EC50): 75 nM
EC50 ([2]; read-out: EC50): 120 nM

COCCN1C(=O)CC(c2ccc(Cl)cc2)C(C(=O)OCc2ccc(OC)cc2)=C1C (stereo not given)
EC50 ([2]; read-out: EC50): 300 nM

COc1ccccc1COC(=O)C1=C(C)N(C[C@@H]2CCCO2)C(=O)C[C@H]1c1ccc(Cl)cc1 (racemic)
EC50 ([1]; read-out: EC50): 110 nM

COCCN1C(=O)CC(c2ccc(Cl)cc2)C(C(=O)OCc2cccc(C(F)(F)F)c2)=C1C (stereo not given)
EC50 ([1]; read-out: EC50): 400 nM
EC50 ([2]; read-out: EC50): 800 nM

COCCCN1C(=O)CC(c2ccc(Cl)cc2)C(C(=O)OCc2ccccc2OC)=C1C (stereo not given)
EC50 ([1]; read-out: EC50): 190 nM
EC50 ([2]; read-out: EC50): 730 nM

COCCN1C(=O)CC(c2ccc(Cl)cc2)C(C(=O)OCc2ccc(C)cc2)=C1C (stereo not given)
EC50 ([1]; read-out: EC50): 300 nM

CC1=C(C(=O)OCc2ccccc2)C(c2ccc(Cl)cc2)CC(=O)N1CCN(C)C (stereo not given)
EC50 ([2]; read-out: EC50): 4700 nM

C#CCN1C(=O)CC(c2ccc(Cl)cc2)C(C(=O)OCc2ccccc2)=C1C (stereo not given)
EC50 ([1]; read-out: EC50): 700 nM
EC50 ([2]; read-out: EC50): 1000 nM

C=CCN1C(=O)CC(c2ccc(Cl)cc2)C(C(=O)OCc2ccccc2)=C1C (stereo not given)
EC50 ([1]; read-out: EC50): 800 nM
EC50 ([2]; read-out: pEC50 (converted)): 1580 nM

COCCN1C(=O)CC(c2ccc(Cl)cc2)C(C(=O)OCc2ccccc2OC(F)(F)F)=C1C (stereo not given)
EC50 ([2]; read-out: EC50): 1200 nM
EC50 ([2]; read-out: pEC50 (converted)): 10000 nM

COc1ccccc1COC(=O)C1=C(C)N(C[C@H]2CCCO2)C(=O)C[C@@H]1c1ccc(Cl)nc1
EC50 ([1]; read-out: EC50): 223 nM

COCCN1C(=O)CC(c2ccc(Cl)cc2)C(C(=O)OCc2ccccc2)=C1C (stereo not given)
EC50 ([1]; read-out: EC50): 500 nM
EC50 ([2]; read-out: EC50): 900 nM
